The source of these data is ChEMBL document CHEMBL2380257, “Discovery of a small-molecule inhibitor and cellular probe of Keap1-Nrf2 protein-protein interaction” (Bioorg Med Chem Lett, 2013).

SMILES strings stand for the structures.

For orientation: solubility means how much of the substance goes into solution per volume. Read a low solubility as a poorly soluble substance.

Type in all cases: physicochemical
Data set [1] in a line: Solubility of the compound in phosphate buffer.
Data set [2] can be described thus: Metabolic stability of the compound assessed as thiol group addition after 48 hrs in presence of glutathione.
Data set [3] is described as follows: Metabolic stability of the compound assessed as thiol group decomposition after 48 hrs in presence of glutathione.
The nature of data set [4]: Stability in phosphate buffer after 24 hrs.

Compound `O=C(O)[C@H]1CCCC[C@H]1C(=O)N1CCc2ccccc2[C@H]1CN1C(=O)c2ccccc2C1=O` registered a solubility in data set [1] above 100 µM. The Stability result in data set [2], in data set [3] and in data set [4] was “Stable” in each case.
